The test system of one series is anaethestized dog. As to the kind of experiment: Action on femoral delivery, aortal pressure and cardiac rhythm in the anaesthetized dog. The class given is in vivo. Here is the method: This was investigated in an anaethestized dog, the compounds under test being administered by intraveneous perfusion (over 5 minutes). The various compounds under test were compared by administering all of them at a dose per kilogram corresponding to 1/10 of the mouse LD50 (I.V.).
Simultaneously were measured: variations of femoral delivery, aortal pressure, and cardiac rhythm. Table II indicates the maximum variations of these different parameters observed over the 30 minutes which followed administration of various compounds. These variations are expressed in percent based on the initial values.

In series [1] the test system is isolated heart of the rabbit. As to the kind of experiment: Cardiac action on the isolated heart of a rabbit (Langendorf preparation). Conditions: for EC20: Oryctolagus cuniculus. How it is done:
(§1) This was examined according to known methods in the isolated auricle (Trevan preparation) and in the isolated heart of a rabbit (Langendorf preparation).
In the Langendorf preparation, the action of the compounds was determined from three parameters; the amplitude of contractions, coronary delivery, and rhythm. […] The results are indicated in Table 1; an arrow ↓ indicates a diminution, and an arrow ↑ an augmentation.

Series [2] in a line: Toxicity, intravenous in the mouse. Conditions: in vivo, i.v. Here is the method: The toxicities of the various compound were determined intravenously in the mouse.
Series [3] is described as follows: Hygroscopicity of the hydrochloride. Format: physicochemical. Conditions: hydrochloride salt.
In the next series the test system is isolated auricle. As to the kind of experiment: Cardiac action on the isolated auricle (Trevan preparation): amplitude of contractions. Conditions: arrows for diminution/increase are drawings, 0 = inactive, read-out: Action on the isolated auricle: minimum concentration producing a variation of 20% in amplitude of contractions. Here is the method: as §1
Cardiac action of the compounds in question was evaluated according to the amplitude of contractions of the isolated auricle.

For the next series, the system named is cardiovascular system. As to the kind of experiment: Overall action on the cardiovascular system. The class given is in vivo. The text has this:
Compounds in accordance with the invention have shown a marked action on the cardiovascular system, particularly as coronary and cerebal peripheral vasodilators. Some of the compounds have also shown activity as hypotensives or hypertensives. […] In these tests, aqueous solutions of the salts described in the cited Examples were used.

A further series relates to dog. As to the kind of experiment: Cardiac isochaemal hypoxy in the dog (Sodi-Pallares preparation). The class given is in vivo. Conditions: i.v. 10 or 25 mg/kg. Here is the method: After ligature of the anterior intraventricular coronary artery (Sodi-Pallares preparation), intravenous administration of 10 or 25 mg/kg of the compound of Example 3, increased the strength of cardiac contractions and the ventricular dp/dt return, which reflects a […] in the contractile state of the myocardial fibres.

In another series the test system is platelet aggregation. As to the kind of experiment: Platelet aggregation in human blood. Format: cell-based.
The next series relates to rat. As to the kind of experiment: Protection against cerebral isochaemial hypoxy in the rat (clamping of carotid and basilar artery, E.E.G.). The class given is in vivo. Conditions: 5 mg/kg i.v. Here is the method: The protective effect of the compound of Example 3 with regard to cerebal isochaemal hypoxy is shown for at least 3 hours after injection.
[4] abbreviates: i.v. perfusion over 5 min, dose 1/10 of mouse LD50, percent based on initial values.
Setting [5] is: direction arrow is a drawing, read-out: Amplitude of contractions: concentration producing a variation of 20%.

The record followed here is patent US4015002A, “1-Aryl-2-oxo-2,4,5,6,7,7a-hexahydro-indoles, salts, pharmaceutical compositions and methods of use” (Laboratoire Roger Bellon, priority 1974, dated 1977).

SMILES strings stand for the structures. Converted amounts (≈) assume the structure as drawn. “Also recorded” adds a separate entry of the source. Where two headings read alike, the source gives them in different places.

The LD50 is the dose expected to kill half of the subjects tested. Read a high LD50 as lower toxicity. For `CN(C)CCOc1ccc(N2C(=O)C=C3CCCCC32)cc1Cl` (stereo not shown) [Example 15, 1-[3-chloro-4-(2-dimethylaminoethoxy)-phenyl]-2-oxo-2,4,5,6,7,7a-hexahydro-indole], in the series with anaethestized dog (setting [4]), the “Aortal pressure, maximum variation in 30 minutes” value is listed as 0%. For the same molecule, in the series on anaethestized dog (setting [4]), the “Cardiac Rhythm, maximum variation in 30 minutes” value amounted to 0%. Moreover, the EC20 worked out at 1 µg/mL (≈ 2.99 µM) in [1] (setting [5]); 1 µg/mL (≈ 2.99 µM) in series [1] (direction arrow is a drawing, read-out: Rhythm: concentration producing a variation of 20%); 5 µg/mL (≈ 14.9 µM) in the series on isolated auricle. The molecule further gave an LD50 in [2] of 15 mg/kg. Moreover, in series [3], the Hygroscopicity entry was “hygroscopic and absorbed 1/2 mol of water from the air”.
Consider `O=C1C=C2CCCCC2N1c1ccc(OCCN2CCOCC2)cc1` (stereo not shown) [Example 3, 1-[4-(2-morpholinoethoxy)-phenyl]-2-oxo-2,4,5,6,7,7a-hexahydro-indole], for which the “Action on the cardiovascular system (in words)” value in the series on cardiovascular system (aqueous solutions of the salts) was “vasodilators, this action being shown on coronary delivery, femoral delivery and vertebral delivery”. Besides, in the series with cardiovascular system (in vivo), the “Cardiac frequency on increase in amplitude of cardiac contractions (in words)” value was “modified and transitory increase in cardiac frequency”. Also, in the series on anaethestized dog (anaesthetized dog, i.v.), the “Aortal pressure (in words)” value is on record as “without modifying aortal pressure; also recorded: without changes in aortal pressure” and the “Cardiac frequency (in words)” value is listed as “without modifying aortal pressure or cardiac frequency”. In addition, the “Vasodilator action (in words)” value with anaethestized dog (anaesthetized dog, i.v., 1/10 of mouse LD50) is listed as “clearly vasodilators”. In addition, the “Aortal pressure (in words)” value in the series with anaethestized dog (anaesthetized dog, i.v., listed as Example 4) is on record as “without changes in aortal pressure”. In addition, the “Aortal pressure, maximum variation in 30 minutes” value in the series with anaethestized dog (setting [4]) turned out to be 0%. Also, in [1], the “Coronary delivery (in words)” value is given as “did not modify coronary rhythm or augment coronary delivery” and the “Coronary rhythm (in words)” value is “did not modify coronary rhythm”. For the same molecule, the EC20 in series [1] (augmentation, read-out: Concentration providing an augmentation of 20% in the amplitude of contractions) came to 10 µg/mL (≈ 29.2 µM). Moreover, the EC20 in series [1] (setting [5]) was 10 µg/mL (≈ 29.2 µM). Moreover, in [1] (direction arrow is a drawing, read-out: Coronary delivery: concentration producing a variation of 20%), the EC20 was 20 µg/mL (≈ 58.4 µM). The “Protection with regard to cardiac isochaemal hypoxy” value in the series on dog is reported as “showed protective properties”. Further, in the series with dog (after coronary artery ligature), the “Strength of cardiac contractions” value is “increased” and the Ventricular dp/dt return result was “increased”. Further, the median lethal dose (LD50) in series [2] turned out to be 225 mg/kg. For the same molecule, the “Inhibition of platelet aggregation induced by A.D.P.” value in the series on platelet aggregation (1 × 10^-5 (unit not given), A.D.P. 5 mM/l) is “inhibited platelet aggregation”. Moreover, the “Inhibition of platelet aggregation induced by collagen” value in the series with platelet aggregation (1 × 10^-5 (unit not given), collagen 200 mg/cm^3) is recorded as “inhibited platelet aggregation”. In addition, the “Inhibition of platelet aggregation induced by adrenalin” value with platelet aggregation (2 × 10^-4 M, adrenalin 2.5 mcM/l) is on record as “inhibited platelet aggregation”. Moreover, the “Protection with regard to cerebral isochaemial hypoxy” value with rat is “marked protecting properties”. Moreover, the “Delay in the appearance of electrical silence in the E.E.G.” value in the series with rat (after beginning of clamping) is “significantly increased”. The “Duration of protective effect with regard to cerebral hypoxy” value in the series on rat (after injection) is recorded as “at least 3 hours”. For the same molecule, the “Delay in normalization of the E.E.G. trace” value in the series on rat (after removal of the clamps) is listed as “significantly reduced”. Further, the “Period of electrical silence of the E.E.G.” value in the series on rat (during clamping and after removal of clamps) is listed as “significantly reduced”.
